This is an account of results in patent publication US6635651B2, “Inhibitors of thrombin induced platelet aggregation” (Parker Hughes Institute, priority 1999, dated 2003).

The test concerns thrombin induced platelet aggregation. The experiment in a line: Thrombin induced platelet aggregation (Chronolog aggregometer). Particulars: 0.1 U/ml thrombin. Format: cell-based. The method, then:
Platelets treated with 100 μM WHI-P131 or the parent compound, WHI-P258 (negative control), were stimulated with 0.1 U/ml thrombin or 10 μg/ml collagen. WHI-P131 is described above, WHI-P258 is an unsubstituted quinazoline and structurally shown below.
Platelet aggregation with respect to control was monitored in a Chronolog Model 560 Dual Chamber Platelet Aggregometer. […] WHI-P258 had no effect on the thrombin response (FIG. 1C).
Platelets treated with varying concentrations of WHI-P131 or WHI-P258 (negative control) were stimulated with 0.1 U/ml thrombin. Platelet aggregation with respect to control was monitored in a Chronolog Model 560 Dual Chamber Platelet Aggregometer. […] The results are charted in FIG. 2.

Structures are written as SMILES.

One may read the IC50 as the concentration that inhibits the measured activity by half. Read a low IC50 as higher potency. Turning to `COc1cc2ncnc(Nc3ccc(O)cc3)c2cc1OC` [WHI-P131, 4-(4′-Hydroxyphenyl)-amino-6,7-dimethoxyquinazoline], it took 1500 nM to reach half-maximal inhibition (Platelet, varying concentrations) (IC50).
In the case of `COc1cc2ncnc(Nc3ccccc3)c2cc1OC` [WHI-P258, 4-(phenyl)-amino-6,7-dimethoxyquinazoline], the “effect on thrombin induced platelet aggregation” value (100 μM) is listed as “no effect”.
